Here are results for 17 compounds from patent US10821115B2, “Compounds that inhibit Mcl-1 protein” (priority 2017, dated 2020).

Like-named read-outs stand apart in the source and are kept apart here. A value given as a limit tells only on which side of the number the result lay.

In this assay the test system is human multiple myeloma cell line, OPM-2. The experiment in a line: Cell viability assay (OPM-2 10 FBS), CellTiter-Glo. It counts as cell-based. In outline: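 Cells were seeded at 3000 cells/well in RPMI 1640 with 10% FBS and exposed to serially diluted compounds for 16 h at 37 °C, 5% CO2.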
A general note: In ATP-based viability assays light output follows the ATP content of the culture.

[1] abbreviates: Homo sapiens, OPM-2, 16 h, read-out: OPM-2 10% FBS IC50 IP, OPM-2 cells, 10% FBS, 16 h incubation.
[2] abbreviates: Homo sapiens, OPM-2, 16 h, read-out: OPM-2 10% FBS IC50 IP, OPM-2 cells, 10% FBS, 16 h, CellTiter-Glo.
Setting [3] is: read-out: OPM-2 10% FBS IC50 IP, OPM-2 cells, 10% FBS, 16 h, CellTiter-Glo.
The mark [4] stands for this setting: read-out: OPM-2 10% FBS IC50 IP, OPM-2 cells, 10% FBS, 16 h incubation.

`CO[C@@]1(CN2CCN(CC(=O)O)CC2)/C=C/C[C@H](C)[C@@H](C)S(=O)(=O)NC(=O)c2ccc3c(c2)N(C[C@@H]2CC[C@H]21)C[C@@]1(CCCc2cc(Cl)ccc21)CO3` [Example 270, (4-(((1S,3′R,6′R,7′S,8′E,11′S,12′R)-6-CHLORO-7′-METHOXY-11′,12′-DIMETHYL-13′,13′-DIOXIDO-15′-OXO-3,4-DIHYDRO-2H-SPIRO[NAPHTHALENE-1,22′-[20]OXA[13]THIA[1,14]DIAZATETRACYCLO[14.7.2.0-3,6˜.0˜19,24˜]PENT ACOSA[8,16,18,24]TETRAEN]-7′-YL)METHYL)-1-PIPERAZINYL)ACETIC ACID]: the 50% inhibitory concentration (IC50) under setting [1] was 4860 nM. The same measure, in the same setting: the value for `C[C@@H]1[C@@H](C)C/C=C/[C@]2(CN(Cc3ccccc3)CCO2)[C@@H]2CC[C@H]2CN2C[C@@]3(CCCc4cc(Cl)ccc43)COc3ccc(cc32)C(=O)NS1(=O)=O` [Example 138, (1 S,3′R,6′R,7′R,8′E, 11′S,12′R)-4″-benzyl-6-chloro-11′,12′-dimethyl-3,4-dihydro-2H,15′H-dispiro[naphthalene-1,22′-[20]oxa[13]thia[1,14]diazatetracyclo[14.7.2.0-3,6˜.0˜19,24˜]pentacosa[8,16,18,24]tetraene-7′,2″-[1,4]oxazinan]-15′-one 13′,13′-dioxide] was greater than 33300 nM. `C[C@@H]1[C@@H](C)C/C=C/[C@](O)(c2ccc(F)nc2)[C@@H]2CC[C@H]2CN2C[C@@]3(CCCc4cc(Cl)ccc43)COc3ccc(cc32)C(=O)NS1(=O)=O` [Example 100420, (1S,3′R,6′R,7′R,8′E,11′S,12′R)-6-chloro-7′-(6-fluoro-3-pyridinyl)-7′-hydroxy-11′,12′-dimethyl-3,4-dihydro-2H,15′H-spiro[naphthalene-1,22′-[20]oxa[13]thia[1,14]diazatetracyclo [14.7.2.0~3,6~.0~19,24~]pentacosa[8,16,18,24]tetraen]-15′-one 13′,13′-dioxide]: the IC50 under setting [2] is 161 nM.

On to `C[C@@H]1[C@@H](C)C/C=C/[C@@](O)(CNC(C)(C)C)[C@@H]2CC[C@H]2CN2C[C@@]3(CCCc4cc(Cl)ccc43)COc3ccc(cc32)C(=O)NS1(=O)=O` [Example 125, (1S,3′R,6′R,7′S,8′E,11′S,12′R)-7′-((tert-butylamino)methyl)-6-chloro-7′-hydroxy-11′,12′-dimethyl-3,4-dihydro-2H,15′H-spiro[naphthalene-1,22′-[20]oxa[13]thia[1,14]diazatetracyclo[14.7.2.0-3,6˜.0˜19,24˜]pentacosa[8,16,18,24]tetraen]-15′-one 13′,13′-dioxide], for which the half-maximal inhibitory concentration (IC50) under setting [1] was found to be 1480 nM.

As for `CCO[C@@]1(CN2CCN3CCOC[C@@H]3C2)/C=C/C[C@H](C)[C@@H](CCOC)S(=O)(=O)NC(=O)c2ccc3c(n2)N(C[C@@H]2CC[C@H]21)C[C@@]1(CCCc2cc(Cl)ccc21)CO3` [Example 369, (1S,3′R,6′R,7′S,8′E,11′S,12′R)-6-chloro-7′-ethoxy-7′-((9aS)-hexahydropyrazino[2,1-c][1,4]oxazin-8(1H)-ylmethyl)-12′-(2-methoxyethyl)-11′-methyl-3,4-dihydro-2H,15′H-spiro[naphthalene-1,22′-[20]oxa[13]thia[1,14,25]triazatetracyclo [14.7.2.0~3,6~.0~19,24~]pentacosa[8,16,18,24]tetraen]-15′-one 13′,13′-dioxide], the 50% inhibitory concentration (IC50) under setting [1] was 71 nM. As to `CO[C@@]1(C#CCCN2CCS(=O)(=O)CC2)/C=C/C[C@H](C)[C@@H](C)S(=O)(=O)NC(=O)c2ccc3c(c2)N(C[C@@H]2CC[C@H]21)C[C@@]1(CCCc2cc(Cl)ccc21)CO3` [Example 100456, (1S,3′R,6′R,7′S,8′E,11′S,12′R)-6-chloro-7′-(4-(1,1-dioxido-4-thiomorpholinyl)-1-butyn-1-yl)-7′-methoxy-11′,12′-dimethyl-3,4-dihydro-2H,15′H-spiro[naphthalene-1,22′-[20]oxa[13]thia[1,14]diazatetracyclo [14.7.2.0~3,6~.0~19,24~]pentacosa[8,16,18,24]tetraen]-15′-one 13′,13′-dioxide], the half-maximal inhibitory concentration (IC50) under setting [3] came to 1230 nM. As for `CO[C@]1(CNCCN2CCOCC2)/C=C/C[C@H](C)[C@@H](C)S(=O)(=O)NC(=O)c2ccc3c(c2)N(C[C@@H]2CC[C@H]21)C[C@@]1(CCCc2cc(Cl)ccc21)CO3` [Example 36, (1S,3′R,6′R,7′R,8′E,11′S,12′R)-6-chloro-7′-methoxy-11′,12′-dimethyl-7′-(((2-(4-morpholinyl)ethyl)amino)methyl)-3,4-dihydro-2H,15′H-spiro[naphthalene-1,22′-[20]oxa[13]thia[1,14]diazatetracyclo [14.7.2.0~3,6~.0~19,24~]pentacosa[8,16,18,24]tetraen]-15′-one 13′,13′-dioxide], the half-maximal inhibitory concentration (IC50) under setting [1] came out at 518 nM. Regarding `COCC[C@@H]1[C@@H](C)C/C=C/[C@](CN2CCN3CCOC[C@@H]3C2)(OC)[C@@H]2CC[C@H]2CN2C[C@@]3(CCCc4cc(Cl)ccc43)COc3ccc(nc32)C(=O)NS1(=O)=O` [Example 20, (1 S,3′R,6′R,7′S,8′E,11′S, 12′R)-6-chloro-7′-((9aS)-hexahydropyrazino[2,1-c][1,4]oxazin-8(1H)-ylmethyl)-7′-methoxy-12′-(2-methoxyethyl)-11′-methyl-3,4-dihydro-2H,15′H-spiro[naphthalene-1,22′-[20]oxa[13]thia[1,14,25]triazatetracyclo[14.7.2.0-3,6˜.0˜19,24˜]pentacosa[8,16,18,24]tetraen]-15′-one 13′,13′-dioxide], under setting [4], the IC50 stood at 22 nM.

For the compound `CCO[C@]1(CN2CCN(C(C)C)[C@H](C)C2)/C=C/C[C@H](C)[C@@H](CCOC)S(=O)(=O)NC(=O)c2ccc3c(c2)N(C[C@@H]2CC[C@H]21)C[C@@]1(CCCc2cc(Cl)ccc21)CO3` [Example 17, (1S,3′R,6′R,7′R,8′E,11′S,12′R)-6-chloro-7′-ethoxy-12′-(2-methoxyethyl)-11′-methyl-7′-(((3R)-3-methyl-4-(1-methylethyl)-1-piperazinyl)methyl)-3,4-dihydro-2H,15′H-spiro[naphthalene-1,22′-[20]oxa[13]thia[1,14]diazatetracyclo[14.7.2.0-3,6˜.0˜19,24˜]pentacosa[8,16,18,24]tetraen]-15′-one 13′,13′-dioxide], the IC50 under setting [4] was 34 nM. On to `CO[C@]1(CN2CCN(C3(C)COC3)CC2)/C=C/C[C@H](C)[C@@H](C)S(=O)(=O)NC(=O)c2ccc3c(c2)N(C[C@@H]2CC[C@H]21)C[C@@]1(CCCc2cc(Cl)ccc21)CO3` [Example 319, (1S,3′R,6′R,7′R,8′E,11′S,12′R)-6-chloro-7′-methoxy-11′,12′-dimethyl-7′-((4-(3-methyl-3-oxetanyl)-1-piperazinyl)methyl)-3,4-dihydro-2H,15′H-spiro[naphthalene-1,22′-[20]oxa[13]thia[1,14]diazatetracyclo [14.7.2.0~3,6~.0~19,24~]pentacosa[8,16,18,24]tetraen]-15′-one 13′,13′-dioxide], for which, under setting [1], the half-inhibitory concentration (IC50) is 87 nM. Turning to `C[C@@H]1[C@@H](C)C/C=C/C(O)(CN2CCN3CCCC[C@@H]3C2)[C@@H]2CC[C@H]2CN2C[C@@]3(CCCc4cc(Cl)ccc43)COc3ccc(cc32)C(=O)NS1(=O)=O` (single isomer, unassigned) [Example 243], the IC50 under setting [4] was found to be 106 nM. With `CO[C@@]1(CN2CCN3CCN(C)C[C@@H]3C2)/C=C/C[C@H](C)[C@@H](C)S(=O)(=O)NC(=O)c2ccc3c(c2)N(C[C@@H]2CC[C@H]21)C[C@@]1(CCCc2cc(Cl)ccc21)CO3` (single isomer, unassigned) [Example 217], the concentration for half-maximal inhibition (IC50) under setting [4] was found to be 192 nM. On to `CCO[C@@]1(CN2CCC(N(CCOC)CCOC)CC2)/C=C/C[C@H](C)[C@@H](C)S(=O)(=O)NC(=O)c2ccc3c(c2)N(C[C@@H]2CC[C@H]21)C[C@@]1(CCCc2cc(Cl)ccc21)CO3` [Example 312, (1S,3′R,6′R,7′S,8′E,11′S,12′R)-7′-((4-(bis(2-methoxyethyl)amino)-1-piperidinyl)methyl)-6-chloro-7′-ethoxy-11′,12′-dimethyl-3,4-dihydro-2H,15′H-spiro[naphthalene-1,22′-[20]oxa[13]thia[1,14]diazatetracyclo [14.7.2.0~3,6~.0~19,24~]pentacosa[8,16,18,24]tetraen]-15′-one 13′,13′-dioxide], for which, under setting [1], the IC50 was found to be 408 nM.

Consider `CO[C@@]1(C#CCCc2ccncn2)/C=C/C[C@H](C)[C@@H](C)S(=O)(=O)NC(=O)c2ccc3c(c2)N(C[C@@H]2CC[C@H]21)C[C@@]1(CCCc2cc(Cl)ccc21)CO3` [Example 100519, (1S,3′R,6′R,7′S,8′E,11′S,12′R)-6-chloro-7′-methoxy-11′,12′-dimethyl-7′-(4-(4-pyrimidinyl)-1-butyn-1-yl)-3,4-dihydro-2H,15′H-spiro[naphthalene-1,22′-[20]oxa[13]thia[1,14]diazatetracyclo [14.7.2.0~3,6~.0~19,24~]pentacosa[8,16,18,24]tetraen]-15′-one 13′,13′-dioxide], for which the IC50 under setting [3] came out at 138 nM. For `CO[C@]1(CN2CCN3CCN(C(C)=O)C[C@@H]3C2)/C=C/C[C@H](C)[C@@H](C)S(=O)(=O)NC(=O)c2ccc3c(c2)N(C[C@@H]2CC[C@H]21)C[C@@]1(CCCc2cc(Cl)ccc21)CO3` (single isomer, unassigned) [Example 230], the half-maximal inhibitory concentration (IC50) under setting [4] was 70 nM.

Take `CCO[C@]1(CN2CCN(C(C)C)CC2)/C=C/C[C@H](C)[C@@H](CCOC)S(=O)(=O)NC(=O)c2ccc3c(c2)N(C[C@@H]2CC[C@H]21)C[C@@]1(CCCc2cc(Cl)ccc21)CO3` [Example 16, (1S,3′R,6′R,7′R,8′E,11′S,12′R)-6-chloro-7′-ethoxy-12′-(2-methoxyethyl)-11′-methyl-7′-((4-(1-methylethyl)-1-piperazinyl)methyl)-3,4-dihydro-2H, 15′H-spiro[naphthalene-1,22′-[20]oxa[13]thia[1,14]diazatetracyclo[14.7.2.0-3,6˜.0˜19,24˜]pentacosa[8,16,18,24]tetraen]-15′-one 13′,13′-dioxide]: under setting [1], the half-maximal inhibitory concentration (IC50) stood at 53 nM. As to `COC(=O)[C@H](NC(=O)C[C@]1(OC)/C=C/C[C@H](C)[C@@H](C)S(=O)(=O)NC(=O)c2ccc3c(c2)N(C[C@@H]2CC[C@H]21)C[C@@]1(CCCc2cc(Cl)ccc21)CO3)C(C)=O` [Example 100582], the IC50 under setting [2] was determined as 1120 nM.

As a reminder, the IC50 is the concentration at which inhibition is half-maximal.
